Measurements reported in patent US8044089B2, “3-3-di-substituted-oxindoles as inhibitors of translation initiation” (President and Fellows of Harvard College, priority 2004, dated 2011).
Entries after “also recorded” stand apart in the source; their conditions may differ. Like-named read-outs stand apart in the source and are kept apart here.

Assays:
eIF2α = eIF2α phosphorylation measured by Western blot; assay type: cell-based; conditions: for eIF2α-P (phosphorylation of eIF2α measured by Western blot): unit or reference not given
In short: (§1)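 Ca2+ release scored in FURA-2AM loaded cells as "+" (release) or "+/−" (inconclusive); some compounds also tested with ER-targeted FRET Ca2+ sensors. Ca2+-depleting compounds were then tested for eIF2α phosphorylation by Western blot with phospho-specific anti-eIF2α antibody.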

A549 lung cancer cells = assay: SRB growth inhibition of A549 lung cancer cells; assay type: cell-based, human; conditions: for IC50: Homo sapiens
[1] = test system: endoplasmic reticulum (ER) Ca^2+; assay: Depletion of endoplasmic reticulum Ca2+ (ER-targeted cameleon proteins, FRET); assay type: cell-based; conditions: ER-targeted Ca^2+-sensitive proteins
Description: FIGS. 2A-2B depict compound 1181 activity. […] These proteins emit light and the Ca^2+ content is measured by fluorescent resonance energy transfer (FRET).
Without intending to be bound by theory, the mechanism of action of translation initiation inhibitors is set forth in FIG. 1, and includes the depletion (complete or partial depletion) of intracellular calcium (Ca^2+) stores and phosphorylation of eIF2α. Compounds synthesized using the approaches described herein were screened for their ability to partially deplete intracellular Ca^2+ stores using FURA-2AM loaded cells (Benzaquen et al. (1995) Nature Medicine, 1:534, incorporated herein by reference in its entirety for all purposes). A limited subset of compounds were further screened for their ability to deplete endoplasmic reticulum (ER) Ca^2+. The Ca^2+ content of the ER was monitored using ER-targeted, Ca^2+ sensitive, recombinant proteins. These recombinant proteins emitted light by fluorescent resonance energy transfer (FRET) as a function of the Ca^2+ content of the medium. […] Compounds that depleted Ca^2+ were further evaluated for their ability to phosphorylate eIF2α. eIF2α phosphorylation was measured by Western blot analysis using the phospho-specific anti-eIF2α antibody, as previously described (Aktas et al. (1998) Proc. Natl. Acad. Sci. USA, 95:8280, incorporated herein by reference in its entirety for all purposes).

[2] = test system: intracellular Ca^2+ stores; assay: Ca2+ release from intracellular stores (FURA-2AM loaded cells); assay type: cell-based; parameters: key to Ca^2+ (Ca^2+ release from intracellular stores): a “+” denotes release; a “+/−” denotes inconclusive
In short: as §1

[3] = test system: squamous cell carcinoma (KLN) tumor; assay: Squamous cell carcinoma (KLN) tumor mass in mice; assay type: in vivo; conditions: DBA/2J mice, oral, 320 mg/kg/day, six weeks
[4] = test system: ternary complex in transgenic KLN cells; assay: Ternary complex assay; assay type: cell-based
Description: FIGS. 3A-3C depict compound 1181 activity. (A) depicts the drug induced phosphorylation of eIF2α protein in control (lane 1), positive control (lane 2) and 1181 (lane 3) measured using Western blot analysis.
(§2) Ternary complex assay was 8-fold over DMSO at 20 μM, and cell growth was inhibited at <1 μM. The plasma levels for this in mice were estimated using liquid chromatography and mass spectrometry (LC-MS). Compound 1430 was orally administered at 160 mg/kg, 240 mg/kg, and 320 mg/kg to DBA/2J mice and the plasma concentration was measured at three time points, one hour, three hours, and six hours, and is set forth in Table 15. The plasma was isolated from the mice by heart-lung puncture and the samples were processed and analyzed by LC-MS. The concentrations at each time and dose are in nmoles/mL of plasma (n.d.=not detected; X=not determined).

[5] = Plasma levels after oral administration (LC-MS); assay type: in vivo; conditions: mouse, DBA/2J mice
Description: as §2

[6] = A549 lung cancer cells, unit inferred, read-out: SRB (IC50 for growth inhibition of A549 lung cancer cells)

| IC50 (A549 lung cancer cells; [6]) [nM] | IC50 (A549 lung cancer cells; A549, read-out: cell growth was inhibited at) [nM] | concentration at 1 h ([5]; oral 160 mg/kg) [µM] | concentration at 3 h ([5]; oral 160 mg/kg) [µM] | concentration at 1 h ([5]; oral 240 mg/kg) [µM] | concentration at 3 h ([5]; oral 240 mg/kg) [µM] | concentration at 1 h ([5]; oral 320 mg/kg) [µM] | concentration at 3 h ([5]; oral 320 mg/kg) [µM] | concentration at 6 h ([5]; oral 320 mg/kg, 6 hours) [µM] | Compound | eIF2α phosphorylation (in words) (eIF2α) | eIF2α-P (phosphorylation of eIF2α measured by Western blot) (eIF2α) | growth inhibition of cancer cells (in words) (A549 lung cancer cells; A549) | depletion of ER Ca^2+ (in words) [1] | Ca^2+ (Ca^2+ release from intracellular stores) [2] | Ca^2+ release / depletion of intracellular Ca^2+ (in words) [2] | squamous cell carcinoma (KLN) tumor mass [3] | depletion of ternary complex (in words) ([4]; transgenic KLN cells) | increase in eIF2α phosphorylation over DMSO (eIF2α; at 5 μM, over DMSO) [fold] | Ternary complex assay over DMSO ([4]; at 20 μM, over DMSO) [fold] |
| --- | --- | --- | --- | --- | --- | --- | --- | --- | --- | --- | --- | --- | --- | --- | --- | --- | --- | --- | --- |
| 3000 | – | – | – | – | – | – | – | – | CC(C)(C)c1ccc(O)c(C2(c3ccccc3)C(=O)Nc3ccccc32)c1 (stereo not shown) [Compound 1181, 3-(5-tert-butyl-2-hydroxy-phenyl)-3-phenyl-1,3-dihydro-indol-2-one] | phosphorylated eIF2α | 5 | inhibited growth of a cancer cell line (A549) | depleted ER-Ca^2+; also recorded: depletion of endoplasmic reticulum (ER) Ca^2+ | + | calcium (Ca^2+) release in a dose dependent manner | decreased squamous cell carcinoma tumor mass in mice; also recorded: decrease in squamous cell carcinoma (KLN) tumor mass | depletion of ternary complex | – | – |
| 900 | < 1000 | 5.7 | 3.8 | 6.8 | 4 | 14 | 3.8 | 2.8 | Cc1cc(C2(c3ccccc3)C(=O)Nc3ccccc32)c(NS(=O)(=O)c2ccc(C(C)(C)C)cc2)cc1O (stereo not shown) [Compound 1430, 4-tert-butyl-N-[5-hydroxy-4-methyl-2-(2-oxo-3-phenyl-2,3-dihydro-1H-indol-3-yl)-phenyl]-benzenesulfonamide] | – | 4.8 | – | – | + | – | – | – | 5 | 8 |
